Measurements: US20210330611A1, “THERAPY FOR NEUROLOGICAL DISEASES/DISORDERS” (priority 2020, published 2021)
Counter-ions that a name gives are not always drawn. Like-named read-outs stand apart in the source and are kept apart here.

Assays:
[1] = test system: fibrin-induced microglia activation; assay: Image-based assay of fibrin-induced microglia activation (HTS and dose response); format: cell-based, rat; conditions: for inhibition at 10 µM: Rattus norvegicus, Microglia, read-out: Fibrin % inhibition
[2] = test system: LPS-induced microglia activation; assay: Image-based assay of LPS-induced microglia activation (HTS and dose response); format: cell-based, rat; conditions: for inhibition at 10 µM: Rattus norvegicus, Microglia, read-out: LPS % inhibition
[3] = test system: primary rat microglia; assay: Cell toxicity (dead cells, size <150 μm2) in LPS assay
[4] = test system: primary rat microglia; assay: Cell toxicity (dead cells, size <150 μm2) in coated fibrin (cFib) assay;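 also: share of dead cells sized under 150 µm2 at 10 µM in fibrin-stimulated microglia HTS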
[5] = test system: fibrin- and LPS-induced microglia activation; assay: cells; format: cell-based, rat
[6] = primary microglia HTS, 10 μM, fibrin-stimulated, cell size >800 μm^2 as marker of activation
[7] = primary microglia HTS, 10 μM, LPS-stimulated, cell size >800 μm^2 as marker of activation
[8] = primary microglia HTS, 10 μM, LPS assay, cell size <150 μm^2 as marker of toxicity
[9] = primary microglia HTS, 10 μM, fibrin assay, cell size <150 μm^2 as marker of toxicity
[10] = HTS of 1907 compounds, quadrant by fibrin and LPS inhibition
[11] = primary microglia HTS, fibrin stimulation, activation = cell size >800 μm2
[12] = 48 h, primary microglia HTS, LPS stimulation, activation = cell size >800 μm2
[13] = primary microglia HTS, LPS stimulation, toxicity = cell size <150 μm2
[14] = primary microglia HTS, fibrin stimulation, toxicity = cell size <150 μm2
[15] = quadrant by fibrin and LPS inhibition in HTS of 1907 compounds
[16] = primary HTS, 10 μM, fibrin-stimulated primary microglia
[17] = primary HTS, 10 μM, LPS-stimulated primary microglia
[18] = primary HTS, 10 μM, LPS assay, dead cells size <150 μm2
[19] = primary HTS, 10 μM, fibrin assay, dead cells size <150 μm2
[20] = primary microglia HTS, fibrin stimulation, increased cell size (>800 μm^2) as marker of activation
[21] = 48 h, primary microglia HTS, LPS stimulation, increased cell size (>800 μm^2) as marker of activation
[22] = primary microglia HTS, LPS stimulation, decreased size (<150 μm^2) as marker of toxicity
[23] = primary microglia HTS, fibrin stimulation, decreased size (<150 μm^2) as marker of toxicity

Nc1ccc(S(=O)(=O)NC(=O)c2ccccc2)cc1 [Sulfabenzamide]
inhibition at 10 µM [1, 6]: -15% | inhibition at 10 µM [2, 7]: 19% | LPS % cell toxicity [3, 8]: 1% | Fibrin % cell toxicity [4, 9]: 1% | Quadrant (FIG. 5b) [5, 10]: Q4

NS(=O)(=O)c1cc2c(cc1C(F)(F)F)NCNS2(=O)=O [Hydroflumethiazide]
inhibition at 10 µM [1, 11]: -9% | inhibition at 10 µM [2, 12]: 11% | LPS % cell toxicity [3, 13]: 0% | Fibrin % cell toxicity [4, 14]: 0% | Quadrant (FIG. 5b) [5, 15]: Q4

CC1(C)S[C@@H]2[C@H](NC(=O)C(C(=O)O)c3ccccc3)C(=O)N2[C@H]1C(=O)O (stereo partly shown) [Carbenicillin]
inhibition at 10 µM [1, 16]: -4% | inhibition at 10 µM [2, 17]: 4% | LPS % cell toxicity [3, 18]: 0% | Fibrin % cell toxicity [4, 19]: 1% | Quadrant (FIG. 5b) ([5]; primary HTS, 10 μM): Q4

O=C(CCNNC(=O)c1ccncc1)NCc1ccccc1 [Nialamide]
inhibition at 10 µM [1, 20]: -6% | inhibition at 10 µM [2, 21]: 11% | LPS % cell toxicity [3, 22]: 0% | Fibrin % cell toxicity [4, 23]: 1% | Quadrant (FIG. 5b) [5, 15]: Q4

Cc1cc(=O)[nH]c(=S)[nH]1 [Methylthiouracil]
inhibition at 10 µM [1, 20]: 31% | inhibition at 10 µM [2, 21]: 16% | LPS % cell toxicity [3, 22]: 0% | Fibrin % cell toxicity [4, 23]: 0% | Quadrant (FIG. 5b) [5, 15]: Q4

Clc1ccc(CCC(Cn2ccnc2)Sc2c(Cl)cccc2Cl)cc1 (stereo not shown) [Butoconazole]
inhibition at 10 µM [1, 16]: -51% | inhibition at 10 µM [2, 17]: 10% | LPS % cell toxicity [3, 18]: 0% | Fibrin % cell toxicity [4, 19]: 0% | Quadrant (FIG. 5b) ([5]; primary HTS, 10 μM): Q4

Tyloxapol
Fibrin % inhibition [1, 6]: −1% | LPS % inhibition [2, 7]: 17% | LPS % cell toxicity [3, 8]: 0% | Fibrin % cell toxicity [4, 9]: 1% | Quadrant (FIG. 5b) [5, 10]: Q4

CN1C(=O)CC[C@H]1c1cccnc1 [Cotinine]
inhibition at 10 µM [1, 16]: -39% | inhibition at 10 µM [2, 17]: 6% | LPS % cell toxicity [3, 18]: 1% | Fibrin % cell toxicity [4, 19]: 1% | Quadrant (FIG. 5b) ([5]; primary HTS, 10 μM): Q4

CN1CCCN=C1COC(=O)C(O)(c1ccccc1)C1CCCCC1 (stereo not shown) [Oxyphencyclimine]
inhibition at 10 µM [1, 20]: 15% | inhibition at 10 µM [2, 21]: 11% | LPS % cell toxicity [3, 22]: 0% | Fibrin % cell toxicity [4, 23]: 1% | Quadrant (FIG. 5b) [5, 15]: Q4

CN(C)CCCOc1nn(Cc2ccccc2)c2ccccc12 [Benzydamine]
inhibition at 10 µM [1, 16]: -16% | inhibition at 10 µM [2, 17]: 30% | LPS % cell toxicity [3, 18]: 1% | Fibrin % cell toxicity [4, 19]: 1% | Quadrant (FIG. 5b) ([5]; primary HTS, 10 μM): Q4

CCn1cc(C(=O)O)c(=O)c2cc(F)c(N3CCNCC3)nc21 [Enoxacin]
inhibition at 10 µM [1, 20]: 113% | inhibition at 10 µM [2, 21]: 119% | LPS % cell toxicity [3, 22]: 12% | Fibrin % cell toxicity [4, 23]: 84% | Quadrant (FIG. 5b) [5, 15]: Q2

Cc1ccsc1/C=C/C1=NCCCN1C [Morantel Citrate]
inhibition at 10 µM [1, 20]: -11% | inhibition at 10 µM [2, 21]: 11% | LPS % cell toxicity [3, 22]: 0% | Fibrin % cell toxicity [4, 23]: 1% | Quadrant (FIG. 5b) [5, 15]: Q4

N=C(N)N/N=C/c1c(Cl)cccc1Cl [Guanabenz]
inhibition at 10 µM [1, 11]: -46% | LPS % inhibition ([2]; primary microglia HTS, LPS stimulation, activation = cell size >800 μm2): −18% | LPS % cell toxicity [3, 13]: 0% | Fibrin % cell toxicity [4, 14]: 1% | Quadrant (FIG. 5b) [5, 15]: Q4

CC12CC3CC(C)(C1)CC(N)(C3)C2 [Memantine]
inhibition at 10 µM [1, 20]: 2% | inhibition at 10 µM [2, 21]: 5% | LPS % cell toxicity [3, 22]: 0% | Fibrin % cell toxicity [4, 23]: 0% | Quadrant (FIG. 5b) [5, 15]: Q4

O=C1NCC2(CCN(CCc3ccccc3)CC2)O1 [Fenspiride]
inhibition at 10 µM [1, 11]: -43% | inhibition at 10 µM [2, 12]: -1% | LPS % cell toxicity [3, 13]: 0% | Fibrin % cell toxicity [4, 14]: 1% | Quadrant (FIG. 5b) [5, 15]: Q4

CN1CCN(C2=Nc3ccccc3Oc3ccc(Cl)cc32)CC1 [Loxapine]
inhibition at 10 µM [1, 20]: -41% | inhibition at 10 µM [2, 21]: 9% | LPS % cell toxicity [3, 22]: 0% | Fibrin % cell toxicity [4, 23]: 0% | Quadrant (FIG. 5b) [5, 15]: Q4

CC(C)Oc1ccc2c(=O)c(-c3ccccc3)coc2c1 [Ipriflavone]
inhibition at 10 µM [1, 11]: -29% | inhibition at 10 µM [2, 12]: 7% | LPS % cell toxicity [3, 13]: 0% | Fibrin % cell toxicity [4, 14]: 1% | Quadrant (FIG. 5b) [5, 15]: Q4
